The nature of this test: Expert panel taste evaluation (umami/salty) in chicken broth with or without added choline chloride. The test is classed as in vivo. The settings on record: for Taste description, with choline added: choline chloride 7 ppm final concentration; for Taste description, material alone: without choline chloride. How it is done: The materials described below were evaluated at the concentration specified by an expert panel in a chicken broth (commercial Swanson chicken broth, with no MSG added, 50% reduced sodium 430 mg/serving) with or without added choline chloride (7 ppm final concentration).

Where [1] appears, read: 10 ppm in Swanson chicken broth, no MSG added, 50% reduced sodium.

Structures are written as SMILES.

For the compound `CC(C)=CCC/C(C)=C/CNC(=O)C1CC1` [(E)-N-(3,7-dimethylocta-2,6-dienyl)cyclopropanecarboxamide], for the setting “2 ppm in chicken broth”, the “Taste description, with choline added” value is given as “Very full, more salty, umami” and the “Taste description, material alone” value was “Umami, salty, not good aftertaste”.

Consider `CC(C)COc1ccc(C(=O)CCc2ccccn2)c(O)c1` [1-(2-hydroxy-4-isobutoxyphenyl)-3-(pyridine-2-yl)propan-1-one], for which, for the setting “1 ppm in chicken broth”, the “Taste description, with choline added” value is “enhanced the saltiness and umami character with a well rounded taste profile”; the “Taste description, material alone” value was “Salty and umami”.

Turning to `COc1cc(C)ccc1CNC(=O)C(=O)NCCc1ccccn1` [N-(2-methoxy-4-methylbenzyl)-N′-(2-(pyridin-2-yl)ethyl)oxalamide], where the note is “0.5 ppm in chicken broth”, the “Taste description, with choline added” value is “more lingering umami, kokumi” and the “Taste description, material alone” value is recorded as “lingering umami”.

On to `COc1ccc(C(=O)CCc2ccccn2)c(O)c1` [1-(2-hydroxy-4-methoxyphenyl)-3-(pyridin-2-yl)propan-1-one], for which the “Taste description, material alone” value under setting [1] is given as “Umami, lingering, body”. Further, the “Taste description, with choline added” value (10 ppm in chicken broth) is “enhancement of umami, enhancement of saltiness”.

Turning to `Cc1cc(O)c(C(=O)CCc2ccccn2)cc1C` [1-(2-hydroxy-4,5-dimethylphenyl)-3-(pyridin-2-yl)propan-1-one], under setting [1], the “Taste description, material alone” value is on record as “Weak umami”. Also, the “Taste description, with choline added” value (10 ppm in chicken broth) is recorded as “Better, stronger umami, saltier”.

Take `CCCCCOc1ccc(C(=O)CCc2ccccn2)c(O)c1` [1-(2-hydroxy-4-(pentyloxy)phenyl)-3-(pyridine-2-yl)propan-1-one]: for the setting “1 ppm in chicken broth”, the “Taste description, with choline added” value is “enhanced the saltiness and umami character with a well rounded taste profile”; the “Taste description, material alone” value was “salty and umami”.
